Reference: US20240156791A1, “METHODS OF TREATING SPINAL CORD INJURY OR DAMAGE” (Spinogenix, Inc., priority 2021, published 2024)

Tested on: rat C2 hemisection (C2HS) model of spinal cord injury
Assay: rat C2 hemisection (C2HS) model of spinal cord injury, recovery monitored by diaphragm EMG
Assay type: in vivo
Procedure: A representative compound of this disclosure, Compound 1, was used in treating spinal cord injury in rats. The rat C2 hemisection (C2HS) model of spinal cord injury was used in this experiment. The spinal cord injury was modeled in rats by hemi-section at the level of C2 followed by monitoring of lesion and recovery was conducted by one of the following methods: diaphragm EMG, transdiaphragmatic pressure, and ventilatory behaviors.
Seven rats were treated with Compound 1 (30 mg/kg) and 8 rats were treated with a vehicle (0.5% DMSO in phosphate buffered saline) for 14 days and their recovery was monitored. […] Also, the magnitude of recovery was an average 54% among recovered compound-treated rats as compared to vehicle-treated rats.
Similar experiment was carried out separately using 4 rats and it provided similar results as those described above.

[1] = separate similar experiment using 4 rats

Structure (SMILES): OCCOCCOCCOCCOc1ccc(-c2nc3ccccc3s2)cc1 [Compound 1]
- recovery compared with brain derived neurotrophic factor approaches (30 mg/kg for 14 days): greater than that seen for brain derived neurothrophic factor approaches
- rats recovered as judged by diaphragm EMG (30 mg/kg for 14 days, seven rats, by day 14 post lesion): 86%
- magnitude of recovery (average) among recovered compound-treated rats as compared to vehicle-treated rats (30 mg/kg for 14 days, diaphragm EMG): 54%
- recovery from spinal cord injury as judged by diaphragm EMG (FIG. 1A) (rats treated with compound vs vehicle (0.5% DMSO in PBS)): enhancement of recovery
- % recovery as compared to vehicle-treated rats [1]: greater % recovery
- magnitude of recovery as compared to vehicle-treated rats [1]: greater magnitude of recovery
